Experimental data: patent publication US20160090556A1, “PRODUCTS COMPRISING MALODOR REDUCTION MATERIALS” (The Procter & Gamble Company, priority 2014, published 2016)
Where two headings read alike, the source gives them in different places.

Assay: Liquid dish neat product liquid-air partition coefficient
Assay type: physicochemical
[1] = class code letter within Comment Code

SMILES | Log of liquid dish neat product liquid-air partition coefficient (Comment Code K/L) | Comment Code: Log of liquid dish neat product liquid-air partition coefficient (code letters K, L) | Log of liquid dish neat product liquid-air partition coefficient (Comment Code K/L) [1] | also measured
CC1C(=O)CC2(C)CCCC(C)(C)C23CC13 (stereo not drawn) [Material 804] | K (Log of liquid dish neat product liquid-air partition coefficient greater than or equal to −7) | K (Log of liquid dish neat product liquid-air partition coefficient greater than or equal to −7) |  | 
CCCCCC(=O)Oc1ccc(C)cc1 [Material 939] | K (Log of liquid dish neat product liquid-air partition coefficient greater than or equal to −7) |  |  | 
CCCCCCCCCCCCCO [Material 1090] | K (Log of liquid dish neat product liquid-air partition coefficient greater than or equal to −7) |  |  | 
C=CCCC(=O)/C=C/C1C(C)=CCCC1(C)C (stereo not drawn) [Material 559] |  |  | K (Log of liquid dish neat product liquid-air partition coefficient greater than or equal to −7) | 
C=C1CC[C@@H]2[C@H]([C@H]3[C@H]1CC[C@]3(C)O)C2(C)C [Material 1035] | K (Log of liquid dish neat product liquid-air partition coefficient greater than or equal to −7) | K (Log of liquid dish neat product liquid-air partition coefficient greater than or equal to −7) |  | 
CCC(C)(O)CCc1ccccc1 (stereo not drawn) [Material 731] | K (Log of liquid dish neat product liquid-air partition coefficient greater than or equal to −7) |  |  | 
COc1ccc(COC=O)cc1 [Material 665] |  | K (Log of liquid dish neat product liquid-air partition coefficient greater than or equal to −7) |  | 
CCC(=O)OC(C)(C)C1CC=C(C)CC1 (stereo not drawn) [Material 686] | K (Log of liquid dish neat product liquid-air partition coefficient greater than or equal to −7) |  |  | 
C=CC(=C)CCCC(C)(C)O [Material 34] |  |  | K (Log of liquid dish neat product liquid-air partition coefficient greater than or equal to −7) | 
CCCOC(C)OCCc1ccccc1 (stereo not drawn) [Material 766] | K (Log of liquid dish neat product liquid-air partition coefficient greater than or equal to −7) |  |  | 
C=CC(C)CCCC(C)(C)O (stereo not drawn) [Material 437] |  | K (Log of liquid dish neat product liquid-air partition coefficient greater than or equal to −7) |  | 
CC(C)=CCCC(C)=CCC1CCCC1=O (stereo not drawn) [Material 307] |  |  | K (Log of liquid dish neat product liquid-air partition coefficient greater than or equal to −7) | 
CC1C2CC(CC2C2CCC(O)CC2)C1(C)C (stereo not drawn) [Material 230] |  | K (Log of liquid dish neat product liquid-air partition coefficient greater than or equal to −7) | K (Log of liquid dish neat product liquid-air partition coefficient greater than or equal to −7) | 
CC(=O)OC(C)c1ccccc1 (stereo not drawn) [Material 1041] |  | K (Log of liquid dish neat product liquid-air partition coefficient greater than or equal to −7) |  | 
O=C1CCCCCCCCCCCCCCO1 [Material 370] |  |  | K (Log of liquid dish neat product liquid-air partition coefficient greater than or equal to −7) | 
CC1CC(C)(C)OC(Cc2ccccc2)O1 (stereo not drawn) [Material 1003] | K (Log of liquid dish neat product liquid-air partition coefficient greater than or equal to −7) |  |  | 
CC1=CC2CC(C3OCCO3)C1CC2C(C)C (stereo not drawn) [Material 912] | K (Log of liquid dish neat product liquid-air partition coefficient greater than or equal to −7) |  |  | 

SMILES | Log of liquid dish neat product liquid-air partition coefficient (Comment Code K/L) | Comment Code: Log of liquid dish neat product liquid-air partition coefficient (code letters K, L) | Log of liquid dish neat product liquid-air partition coefficient (Comment Code K/L) [1] | also measured
CC=Cc1ccc(O)c(OC)c1 [Material 214] |  | K (Log of liquid dish neat product liquid-air partition coefficient greater than or equal to −7) |  | 
CC(CCO)CCCC(C)(C)O (stereo not drawn) [Material 249] |  |  | K (Log of liquid dish neat product liquid-air partition coefficient greater than or equal to −7) | 
CC1=CCCC2(C)CCC(C(C)(C)O)CC12 (stereo not drawn) [Material 775] | K (Log of liquid dish neat product liquid-air partition coefficient greater than or equal to −7) | K (Log of liquid dish neat product liquid-air partition coefficient greater than or equal to −7) |  | 
CCCC(O)Cc1ccccc1 (stereo not drawn) [Material 730] | K (Log of liquid dish neat product liquid-air partition coefficient greater than or equal to −7) |  |  | 
CC(C)CC1CC(C)(O)CCO1 (stereo not drawn) [Material 350] |  |  | K (Log of liquid dish neat product liquid-air partition coefficient greater than or equal to −7) | 
CC1=CC[C@@H]2C3CC([C@@H]2C1)[C@@]1(C3)OC1C (stereo partly drawn) [Material 1007] | K (Log of liquid dish neat product liquid-air partition coefficient greater than or equal to −7) | K (Log of liquid dish neat product liquid-air partition coefficient greater than or equal to −7) |  | 
CCCCCCCCCC(C)C(OC)OC (stereo not drawn) [Material 101] |  |  | K (Log of liquid dish neat product liquid-air partition coefficient greater than or equal to −7) | 
OCCc1ccccc1 [Material 955] | K (Log of liquid dish neat product liquid-air partition coefficient greater than or equal to −7) |  |  | 
C=CC(C)(C#N)Cc1ccccc1 (stereo not drawn) [Material 504] |  | K (Log of liquid dish neat product liquid-air partition coefficient greater than or equal to −7) |  | 
C=CCc1ccc(OC)c(OC)c1 [Material 110] |  |  | K (Log of liquid dish neat product liquid-air partition coefficient greater than or equal to −7) | 
COc1ccc(C=O)cc1OC [Material 1118] |  | K (Log of liquid dish neat product liquid-air partition coefficient greater than or equal to −7) |  | 
CC(C)(O)CCc1ccccc1 [Material 639] | K (Log of liquid dish neat product liquid-air partition coefficient greater than or equal to −7) |  |  | 
CC1(C)C2CCC3(C2)C1C1(CCC3(C)C)OCCO1 (stereo not drawn) [Material 1145] |  | K (Log of liquid dish neat product liquid-air partition coefficient greater than or equal to −7) |  | Comment Code: Log of liquid dish neat product liquid-air partition coefficient (codes K/L of the Comment Code, Table 1): K (Log of liquid dish neat product liquid-air partition coefficient greater than or equal to −7)
CC(=CC#N)CCc1ccccc1 [Material 505] |  |  | K (Log of liquid dish neat product liquid-air partition coefficient greater than or equal to −7) | 
CC(C)=CCC/C(C)=C\CO [Material 64] |  |  | K (Log of liquid dish neat product liquid-air partition coefficient greater than or equal to −7) | 
CCOc1cc(COC)ccc1O [Material 115] |  | K (Log of liquid dish neat product liquid-air partition coefficient greater than or equal to −7) |  | 
